ChEMBL document CHEMBL3045530, “Synthesis, antimycobacterial, antiviral, antimicrobial activities, and QSAR studies of isonicotinic acid-1-(substituted phenyl)-ethylidene/cycloheptylidene hydrazides” (Med Chem Res, 2012)
In brackets after ≈: the same amount, converted by molar mass.

Columns and labels:
[1] = system: HEL; assay: Cytostatic against Homo sapiens (human) HEL cells assessed as alteration in cell morphology by microscopy; type: ADME, cell-based
[2] = Cytotoxicity against Chlorocebus aethiops (African green monkey) Vero cells assessed as alteration in cell morphology by microscopy; type: cell-based; details: chlorocebus sabaeus, read-out: MTC
[3] = system: Punta Toro virus; assay: Antiviral activity against Punta Toro virus infected Vero cells assessed as inhibition of virus-induced cytopathicity; type: functional, organism-based
[4] = system: Coxsackievirus B4; assay: Antiviral activity against Human coxsackievirus B4 infected Vero cells assessed as inhibition of virus-induced cytopathicity; type: functional, organism-based; details: Enterovirus B
[5] = system: Sindbis virus; assay: Antiviral activity against Sindbis virus infected Vero cells assessed as inhibition of virus-induced cytopathicity; type: functional, organism-based
[6] = system: Mammalian orthoreovirus 1; assay: Antiviral activity against Mammalian orthoreovirus 1 infected Vero cells assessed as inhibition of virus-induced cytopathicity by microscopy; type: functional, organism-based; details: Mammalian orthoreovirus 1, Vero
[7] = system: Human respirovirus 3; assay: Antiviral activity against Human parainfluenza virus 3 infected Vero cells assessed as inhibition of virus-induced cytopathicity by microscopy; type: functional, organism-based; details: Human respirovirus 3, Vero
[8] = Cytotoxicity against Homo sapiens (human) HeLa cells assessed as alteration in cell morphology by microscopy; type: cell-based; details: read-out: MTC
[9] = system: Respiratory syncytial virus; assay: Antiviral activity against Respiratory syncytial virus infected human HeLa cells assessed as inhibition of virus-induced cytopathicity by microscopy; type: functional, organism-based
[10] = system: Coxsackievirus B4; assay: Antiviral activity against Human coxsackievirus B4 infected human HeLa cells assessed as inhibition of virus-induced cytopathicity by microscopy; type: functional, organism-based; details: Enterovirus B
[11] = system: Vesicular stomatitis virus; assay: Antiviral activity against Vesicular stomatitis virus infected human HeLa cells assessed as inhibition of virus-induced cytopathicity by microscopy; type: functional, organism-based
[12] = Cytotoxicity against Homo sapiens (human) HEL cells assessed as alteration in cell morphology by microscopy; type: cell-based; details: for MCC: read-out: MTC
[13] = system: Human herpesvirus 3 strain Oka vaccine; assay: Antiviral activity against Human herpesvirus 3 strain Oka vaccine OKA 07-1 (Varicella zoster virus ) infected in human HEL cells assessed as inhibition of virus-induced cytopathicity; type: functional, organism-based; details: Human alphaherpesvirus 3, HEL
[14] = system: Human herpesvirus 5 strain AD169; assay: Antiviral activity against Human herpesvirus 5 strain AD169 Davis infected human HEL cells assessed as inhibition of virus-induced cytopathicity by microscopy; type: functional, organism-based; details: Human betaherpesvirus 5, Davis
[15] = system: Aspergillus niger; assay: Antimicrobial activity against Aspergillus niger after 7 days by tube dilution method; type: functional
[16] = system: Candida albicans; assay: Antimicrobial activity against Candida albicans after 48 hr by tube dilution method; type: functional
[17] = system: Escherichia coli; assay: Antimicrobial activity against Escherichia coli after 24 hr by tube dilution method; type: functional
[18] = system: Staphylococcus aureus; assay: Antimicrobial activity against Staphylococcus aureus after 24 hr by tube dilution method; type: functional
[19] = system: Bacillus subtilis; assay: Antimicrobial activity against Bacillus subtilis after 24 hr by tube dilution method; type: functional
[20] = system: Human alphaherpesvirus 1; assay: Antiviral activity against TK(-) aciclovir-resistant Human herpesvirus 1 strain KOS infected in human HEL cells assessed as inhibition of virus-induced cytopathicity; type: functional, organism-based; details: Human alphaherpesvirus 1, KOS
[21] = system: Human alphaherpesvirus 2; assay: Antiviral activity against Human herpesvirus 2 strain G infected human HEL cells assessed as inhibition of virus-induced cytopathicity by microscopy; type: functional, organism-based; details: Human alphaherpesvirus 2, strain G
[22] = system: Vaccinia virus; assay: Antiviral activity against Vaccinia virus infected human HEL cells assessed as inhibition of virus-induced cytopathicity by microscopy; type: functional, organism-based; details: Orthopoxvirus vaccinia
[23] = system: Human alphaherpesvirus 1; assay: Antiviral activity against Human herpesvirus 1 strain KOS infected human HEL cells assessed as inhibition of virus-induced cytopathicity by microscopy by microscopy; type: functional, organism-based; details: Human alphaherpesvirus 1, KOS
[24] = Cytotoxicity against Homo sapiens (human) MT4 cells after 4 days by MTT assay; type: cell-based
[25] = system: Human immunodeficiency virus 2; assay: Antiviral activity against Human immunodeficiency virus type 2 (ISOLATE ROD) infected MT4 cells assessed as inhibition of virus-induced cytopathic effect after 4 days by MTT assay; type: functional, organism-based; details: Human immunodeficiency virus 2, ISOLATE ROD, MT4, 96 h
[26] = system: Human immunodeficiency virus 1; assay: Antiviral activity against Human immunodeficiency virus 1 IIIB infected MT4 cells assessed as inhibition of virus-induced cytopathic effect after 4 days by MTT assay; type: functional, organism-based; details: MT4, 96 h

Row | Structure (SMILES) | Activity [1] | MCC [2] | EC50 [3] | EC50 [4] | EC50 [5] | EC50 [6] | EC50 [7] | MCC [8] | EC50 [9] | EC50 [10] | EC50 [11] | CC50 [12] | MCC [12] | EC50 [13] | -logMIC [15] | -logMIC [16] | -logMIC [17] | -logMIC [18] | -logMIC [19] | CC50 at 96 h [24] | other results
1 | COc1ccc(/C(C)=N/NC(=O)c2ccncc2)c(OC)c1 | Toxic | 100 µg/mL | > 20 µg/mL | > 20 µg/mL | > 20 µg/mL | > 20 µg/mL | > 20 µg/mL | 20 µg/mL | > 4 µg/mL | > 4 µg/mL | > 4 µg/mL | 10 µg/mL (≈ 33.4 µM) | > 100 µg/mL | > 20 µg/mL | 2.38 | 2.68 | 2.08 | 2.38 | 2.38 | 12 µg/mL (≈ 40.1 µM) | EC50 [14]: > 20 µg/mL; EC50 [20]: > 100 µg/mL; EC50 [21]: > 100 µg/mL; EC50 [22]: > 100 µg/mL; EC50 [23]: > 100 µg/mL; EC50 [25]: > 12 µg/mL; EC50 [26]: > 12 µg/mL
2 | C/C(=N\NC(=O)c1ccncc1)c1ccc(Cl)cc1Cl | Toxic | 100 µg/mL | > 20 µg/mL | > 20 µg/mL | > 20 µg/mL | > 20 µg/mL | > 20 µg/mL | 100 µg/mL | > 20 µg/mL | > 20 µg/mL | > 20 µg/mL | 11 µg/mL (≈ 35.7 µM) | > 100 µg/mL | > 20 µg/mL | 2.39 | 2.69 | 2.39 | 2.09 | 2.09 | 38 µg/mL (≈ 123 µM) | EC50 [14]: > 20 µg/mL; EC50 [20]: > 100 µg/mL; EC50 [21]: > 100 µg/mL; EC50 [22]: > 100 µg/mL; EC50 [23]: > 100 µg/mL; EC50 [25]: > 38 µg/mL; EC50 [26]: > 38 µg/mL
3 | C/C(=N\NC(=O)c1ccncc1)c1ccc(O)cc1 | Toxic | ≥ 20 µg/mL | > 20 µg/mL | > 20 µg/mL | > 20 µg/mL | > 20 µg/mL | > 20 µg/mL | 100 µg/mL | > 20 µg/mL | > 20 µg/mL | > 20 µg/mL | 91 µg/mL (≈ 356 µM) | 100 µg/mL | > 20 µg/mL | 2.31 | 2.31 | 2.01 | 2.01 | 2.01 | 95 µg/mL (≈ 372 µM) | EC50 [14]: > 20 µg/mL; EC50 [20]: > 20 µg/mL; EC50 [21]: > 20 µg/mL; EC50 [22]: > 20 µg/mL; EC50 [23]: > 20 µg/mL; EC50 [25]: > 95 µg/mL; EC50 [26]: > 95 µg/mL
4 | C/C(=N\NC(=O)c1ccncc1)c1ccc(Br)cc1 | Toxic | ≥ 20 µg/mL | > 20 µg/mL | > 20 µg/mL | > 20 µg/mL | > 20 µg/mL | > 20 µg/mL | 20 µg/mL | > 4 µg/mL | > 4 µg/mL | > 4 µg/mL | 51 µg/mL (≈ 160 µM) | ≥ 20 µg/mL | > 20 µg/mL | 2.41 | 2.41 | 2.41 | 2.1 | 2.1 | 43 µg/mL (≈ 135 µM) | EC50 [14]: > 20 µg/mL; EC50 [20]: > 20 µg/mL; EC50 [21]: > 20 µg/mL; EC50 [22]: > 20 µg/mL; EC50 [23]: > 20 µg/mL; EC50 [25]: > 43 µg/mL; EC50 [26]: > 43 µg/mL
5 | OC(Cn1cncn1)(Cn1cncn1)c1ccc(F)cc1F [FLUCONAZOLE] | – | – | – | – | – | – | – | – | – | – | – | – | – | – | 2.64 | 2.64 | – | – | – | – | –
6 | Cc1cn([C@H]2C[C@H](N=[N+]=[N-])[C@@H](CO)O2)c(=O)[nH]c1=O [ZIDOVUDINE] | – | – | – | – | – | – | – | – | – | – | – | – | – | – | – | – | – | – | – | > 25 µg/mL | –
7 | C/C(=N\NC(=O)c1ccncc1)c1ccccc1Br | Toxic | – | – | – | – | – | – | – | – | – | – | – | – | – | 2.41 | 2.71 | 2.41 | 2.41 | 2.71 | – | –
